Measured values as given in the NIST ThermoML archive (doi:10.1016/j.fluid.2018.07.014).
Numbers after ± are expanded uncertainties.

Assay: Boiling temperature at pressure P
Conditions: Liquid, Closed cell (Static) method

| SMILES | Boiling temperature at pressure P (9.6 kPa) | Boiling temperature at pressure P (13.7 kPa) | Boiling temperature at pressure P (23.8 kPa) | Boiling temperature at pressure P (38.9 kPa) | Boiling temperature at pressure P (54.5 kPa) | Boiling temperature at pressure P (69.5 kPa) | Boiling temperature at pressure P (91.7 kPa) | Boiling temperature at pressure P (7.1 kPa) | Boiling temperature at pressure P (8.9 kPa) | Boiling temperature at pressure P (13.9 kPa) | Boiling temperature at pressure P (24.1 kPa) | Boiling temperature at pressure P (39.1 kPa) | Boiling temperature at pressure P (52.7 kPa) | Boiling temperature at pressure P (69.3 kPa) | Boiling temperature at pressure P (6.9 kPa) | Boiling temperature at pressure P (9 kPa) | Boiling temperature at pressure P (14.1 kPa) | Boiling temperature at pressure P (39.5 kPa) | Boiling temperature at pressure P (54.3 kPa) | Boiling temperature at pressure P (92.1 kPa) |
| --- | --- | --- | --- | --- | --- | --- | --- | --- | --- | --- | --- | --- | --- | --- | --- | --- | --- | --- | --- | --- |
| CCO [ethanol] | 30.2 ± 7.1 °C | 36.8 ± 5.2 °C | 47 ± 3.9 °C | 57.0 ± 3.1 °C | 64.4 ± 2.7 °C | 69.7 ± 2.4 °C | 76.6 ± 2.4 °C | – | – | – | – | – | – | – | – | – | – | – | – | – |
| CCCCC(=O)OCC [ethyl pentanoate] | – | – | – | – | – | – | 141.8 ± 2.9 °C | 72.2 ± 10 °C | 77.6 ± 9 °C | 88.0 ± 6.9 °C | 101.8 ± 4.9 °C | 115.2 ± 3.7 °C | 122.6 ± 3 °C | 130.8 ± 2.9 °C | – | – | – | – | – | – |
| O [water] | – | – | – | – | – | 90.0 ± 2.6 °C | – | – | – | – | 64.2 ± 4.3 °C | – | – | – | 38.8 ± 8.5 °C | 44 ± 7.7 °C | 53 ± 6 °C | 75.7 ± 3.4 °C | 83.8 ± 2.8 °C | 98.0 ± 2.5 °C |
